Experiments:
[1] = target: Sodium-dependent noradrenaline transporter (Homo sapiens, UniProt P23975); test: DRUGMATRIX: Norepinephrine Transporter radioligand binding (ligand: [125I] RTI-55); format: cell membranes, MDCK, Membrane; details: Not Active = under 50% inhibition at 10 µM
[2] = target: T1, 5-hydroxytryptamine receptor 2C (Homo sapiens, UniProt P28335); test: DRUGMATRIX: Serotonin (5-Hydroxytryptamine) 5-HT2C radioligand binding (ligand: [3H] Mesulergine); format: cell membranes, CHO-K1, Membrane; details: Not Active = under 50% inhibition at 10 µM; for Ki: read-out: Ki
T1 sequence (P28335 whole entry): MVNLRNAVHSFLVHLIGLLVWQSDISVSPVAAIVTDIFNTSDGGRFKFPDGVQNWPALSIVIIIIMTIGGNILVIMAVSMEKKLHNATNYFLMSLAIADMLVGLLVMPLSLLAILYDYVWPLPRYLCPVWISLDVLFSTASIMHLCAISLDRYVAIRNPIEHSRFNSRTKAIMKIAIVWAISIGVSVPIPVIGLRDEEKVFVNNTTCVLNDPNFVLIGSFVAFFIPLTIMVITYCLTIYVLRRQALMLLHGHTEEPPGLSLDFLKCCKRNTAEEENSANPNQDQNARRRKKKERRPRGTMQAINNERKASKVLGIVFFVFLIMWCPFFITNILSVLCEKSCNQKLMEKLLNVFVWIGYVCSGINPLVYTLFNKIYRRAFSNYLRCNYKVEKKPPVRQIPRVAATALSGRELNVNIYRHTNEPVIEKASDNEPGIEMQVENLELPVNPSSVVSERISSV

Cytochrome P450 1A2 = target: T2, Cytochrome P450 1A2 (Homo sapiens, UniProt P05177); details: bti-tn-5b1-4; also: in other assays of this panel Not Active means under 50% inhibition at 10 µM
T2 sequence (P05177 whole entry): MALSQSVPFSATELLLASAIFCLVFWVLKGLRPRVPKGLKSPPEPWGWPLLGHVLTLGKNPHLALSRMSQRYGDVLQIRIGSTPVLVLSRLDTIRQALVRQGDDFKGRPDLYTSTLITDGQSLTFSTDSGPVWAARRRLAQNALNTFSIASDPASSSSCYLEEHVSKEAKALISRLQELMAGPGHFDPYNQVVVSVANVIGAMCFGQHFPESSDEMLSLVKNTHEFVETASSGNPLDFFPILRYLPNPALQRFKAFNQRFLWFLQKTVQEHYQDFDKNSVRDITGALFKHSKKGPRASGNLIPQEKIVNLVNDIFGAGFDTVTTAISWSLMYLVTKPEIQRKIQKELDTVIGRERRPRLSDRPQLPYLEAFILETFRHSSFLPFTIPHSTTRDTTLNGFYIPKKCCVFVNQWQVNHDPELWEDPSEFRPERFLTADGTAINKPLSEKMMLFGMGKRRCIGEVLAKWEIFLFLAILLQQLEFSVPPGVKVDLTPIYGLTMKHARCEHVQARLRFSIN

Cytochrome P450 2A6 = target: T3, Cytochrome P450 2A6 (Homo sapiens, UniProt P11509); details: bti-tn-5b1-4; also: in other assays of this panel Not Active means under 50% inhibition at 10 µM
T3 sequence (P11509 whole entry): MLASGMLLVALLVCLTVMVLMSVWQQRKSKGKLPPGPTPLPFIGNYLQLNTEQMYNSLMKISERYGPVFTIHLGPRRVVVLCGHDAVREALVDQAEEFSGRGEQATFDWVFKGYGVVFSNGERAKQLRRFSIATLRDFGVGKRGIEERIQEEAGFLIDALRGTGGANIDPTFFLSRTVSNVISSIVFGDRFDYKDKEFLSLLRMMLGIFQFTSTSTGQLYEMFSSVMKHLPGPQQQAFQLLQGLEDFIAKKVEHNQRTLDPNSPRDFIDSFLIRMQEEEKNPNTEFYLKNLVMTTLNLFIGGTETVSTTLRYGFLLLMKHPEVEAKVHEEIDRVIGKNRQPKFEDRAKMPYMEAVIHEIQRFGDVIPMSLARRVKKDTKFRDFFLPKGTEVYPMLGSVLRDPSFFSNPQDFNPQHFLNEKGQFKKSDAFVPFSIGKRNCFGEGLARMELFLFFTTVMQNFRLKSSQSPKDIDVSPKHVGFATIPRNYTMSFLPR

Cytochrome P450 2D6 = Cytochrome P450 2D6 (Homo sapiens, UniProt P10635); details: bti-tn-5b1-4; also: in other assays of this panel Not Active means under 50% inhibition at 10 µM
Cytochrome P450 2C9 = Cytochrome P450 2C9 (Homo sapiens, UniProt P11712); details: bti-tn-5b1-4; also: in other assays of this panel Not Active means under 50% inhibition at 10 µM
Cytochrome P450 3A4 = Cytochrome P450 3A4 (Homo sapiens, UniProt P08684); details: bti-tn-5b1-4; also: in other assays of this panel Not Active means under 50% inhibition at 10 µM
Sequence of Cytochrome P450 3A4 (P08684 whole entry): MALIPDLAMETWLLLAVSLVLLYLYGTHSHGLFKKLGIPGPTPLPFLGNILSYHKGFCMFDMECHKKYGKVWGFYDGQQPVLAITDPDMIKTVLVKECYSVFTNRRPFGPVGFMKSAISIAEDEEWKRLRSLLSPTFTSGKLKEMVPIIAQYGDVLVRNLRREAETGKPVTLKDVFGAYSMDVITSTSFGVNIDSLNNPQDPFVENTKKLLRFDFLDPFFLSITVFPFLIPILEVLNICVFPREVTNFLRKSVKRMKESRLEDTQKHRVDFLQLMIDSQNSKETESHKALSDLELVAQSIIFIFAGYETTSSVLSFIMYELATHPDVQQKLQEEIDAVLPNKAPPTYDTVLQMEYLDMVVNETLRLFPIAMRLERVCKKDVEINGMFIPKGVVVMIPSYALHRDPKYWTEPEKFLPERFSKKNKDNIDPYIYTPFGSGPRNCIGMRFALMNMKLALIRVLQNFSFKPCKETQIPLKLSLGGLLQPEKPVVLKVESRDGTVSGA

Sequence of Cytochrome P450 2C9 (P11712 whole entry): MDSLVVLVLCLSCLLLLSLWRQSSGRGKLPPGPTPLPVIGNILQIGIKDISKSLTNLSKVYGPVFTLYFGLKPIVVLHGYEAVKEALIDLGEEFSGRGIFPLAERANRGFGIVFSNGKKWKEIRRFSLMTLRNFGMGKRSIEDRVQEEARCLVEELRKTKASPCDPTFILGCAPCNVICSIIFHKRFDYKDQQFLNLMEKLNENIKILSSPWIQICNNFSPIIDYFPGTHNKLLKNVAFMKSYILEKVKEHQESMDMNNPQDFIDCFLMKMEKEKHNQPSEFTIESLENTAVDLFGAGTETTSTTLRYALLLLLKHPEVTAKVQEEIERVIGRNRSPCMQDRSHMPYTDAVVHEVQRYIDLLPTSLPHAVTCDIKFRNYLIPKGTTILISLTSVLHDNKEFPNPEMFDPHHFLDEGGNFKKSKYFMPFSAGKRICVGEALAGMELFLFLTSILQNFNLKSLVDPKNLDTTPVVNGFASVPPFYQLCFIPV
Sequence of Cytochrome P450 2D6 (P10635 whole entry): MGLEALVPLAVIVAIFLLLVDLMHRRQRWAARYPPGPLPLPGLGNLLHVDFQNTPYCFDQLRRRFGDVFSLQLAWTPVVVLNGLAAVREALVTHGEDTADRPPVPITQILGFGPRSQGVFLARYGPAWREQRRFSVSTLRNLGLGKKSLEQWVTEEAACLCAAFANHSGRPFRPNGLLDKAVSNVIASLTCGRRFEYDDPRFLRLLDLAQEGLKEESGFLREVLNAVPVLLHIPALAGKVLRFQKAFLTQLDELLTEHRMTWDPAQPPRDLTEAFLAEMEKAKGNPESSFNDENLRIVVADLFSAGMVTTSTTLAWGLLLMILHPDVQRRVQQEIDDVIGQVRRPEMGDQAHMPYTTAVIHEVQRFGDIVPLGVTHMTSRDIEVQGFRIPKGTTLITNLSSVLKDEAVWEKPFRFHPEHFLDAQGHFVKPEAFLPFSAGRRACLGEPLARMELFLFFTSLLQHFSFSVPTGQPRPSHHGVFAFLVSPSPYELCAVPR
Sequence of Sodium-dependent noradrenaline transporter (P23975 whole entry): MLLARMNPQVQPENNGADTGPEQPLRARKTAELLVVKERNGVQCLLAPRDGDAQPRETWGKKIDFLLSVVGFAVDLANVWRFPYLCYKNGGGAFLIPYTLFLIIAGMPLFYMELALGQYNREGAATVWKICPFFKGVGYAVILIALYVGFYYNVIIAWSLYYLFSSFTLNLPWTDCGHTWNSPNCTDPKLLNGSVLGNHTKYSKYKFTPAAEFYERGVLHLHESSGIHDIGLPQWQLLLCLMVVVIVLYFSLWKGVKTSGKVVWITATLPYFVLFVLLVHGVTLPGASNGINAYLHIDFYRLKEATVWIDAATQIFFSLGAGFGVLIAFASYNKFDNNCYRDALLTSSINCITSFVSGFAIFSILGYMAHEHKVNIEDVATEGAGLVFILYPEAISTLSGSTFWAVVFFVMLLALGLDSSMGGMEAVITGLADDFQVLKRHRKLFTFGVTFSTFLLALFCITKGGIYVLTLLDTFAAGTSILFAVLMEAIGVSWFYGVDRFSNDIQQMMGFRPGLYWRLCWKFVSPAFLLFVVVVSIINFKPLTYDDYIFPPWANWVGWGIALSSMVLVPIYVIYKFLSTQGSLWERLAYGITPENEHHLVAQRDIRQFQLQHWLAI

C1CCN2C[C@@H]3C[C@@H](CN4CCCC[C@@H]34)[C@H]2C1 [SPARTEINE]
IC50 ([1]; mdck): Not Active
IC50 ([2]; cho-k1): Not Active

CC[C@@]1(O)C(=O)OCc2c1cc1n(c2=O)Cc2cc3c(CN(C)C)c(O)ccc3nc2-1 [TOPOTECAN]
IC50 ([1]; mdck): Not Active
IC50 (Cytochrome P450 1A2): Not Active
Ki (Cytochrome P450 1A2): Not Active
IC50 (Cytochrome P450 2A6): Not Active
Ki (Cytochrome P450 2A6): Not Active
IC50 (Cytochrome P450 2D6): Not Active
Ki (Cytochrome P450 2D6): Not Active
IC50 (Cytochrome P450 2C9): Not Active
Ki (Cytochrome P450 2C9): Not Active
IC50 ([2]; cho-k1): Not Active

C[N+]1(C)[C@@H]2C[C@@H](OC(=O)[C@H](CO)c3ccccc3)C[C@H]1[C@@H]1O[C@@H]12.[Br-] [METHSCOPOLAMINE BROMIDE]
IC50 (Cytochrome P450 3A4): Not Active
Ki (Cytochrome P450 3A4): Not Active
IC50 (Cytochrome P450 1A2): Not Active
Ki (Cytochrome P450 1A2): Not Active
IC50 (Cytochrome P450 2A6): Not Active
Ki (Cytochrome P450 2A6): Not Active
IC50 (Cytochrome P450 2D6): Not Active
Ki (Cytochrome P450 2D6): Not Active
IC50 ([2]; cho-k1): Not Active

CC[C@H](C)[C@@H](CO[C@@H](Cc1ccccc1)C(=O)N[C@@H](CCS(C)(=O)=O)C(=O)OC(C)C)NC[C@@H](N)CS
IC50 ([1]; mdck): Not Active
IC50 (Cytochrome P450 1A2): Not Active
Ki (Cytochrome P450 1A2): Not Active
IC50 (Cytochrome P450 2A6): Not Active
Ki (Cytochrome P450 2A6): Not Active
IC50 (Cytochrome P450 2C9): Not Active
Ki (Cytochrome P450 2C9): Not Active
IC50 ([2]; cho-k1): Not Active

CN(C)CCC=C1c2ccccc2COc2ccccc21 [DOXEPIN]
IC50 (Cytochrome P450 3A4): Not Active
Ki (Cytochrome P450 3A4): Not Active
IC50 (Cytochrome P450 1A2): Not Active
Ki (Cytochrome P450 1A2): Not Active
IC50 (Cytochrome P450 2A6): Not Active
Ki (Cytochrome P450 2A6): Not Active
IC50 (Cytochrome P450 2D6): Not Active
Ki (Cytochrome P450 2D6): Not Active
IC50 (Cytochrome P450 2C9): Not Active
Ki (Cytochrome P450 2C9): Not Active

CCC(C)(C)C(=O)O[C@H]1C[C@@H](C)C=C2C=C[C@H](C)[C@H](CC[C@@H]3C[C@@H](O)CC(=O)O3)[C@H]21 [SIMVASTATIN]
IC50 ([2]; cho-k1): Not Active

CN1C[C@H](CNC(=O)OCc2ccccc2)C[C@@H]2c3cccc4c3c(cn4C)C[C@H]21 [METERGOLINE]
IC50 (Cytochrome P450 3A4): Not Active
Ki (Cytochrome P450 3A4): Not Active
IC50 (Cytochrome P450 1A2): Not Active
Ki (Cytochrome P450 1A2): Not Active
IC50 (Cytochrome P450 2A6): Not Active
Ki (Cytochrome P450 2A6): Not Active
IC50 (Cytochrome P450 2C9): Not Active
Ki (Cytochrome P450 2C9): Not Active

CCN(CC)CCNC(=O)c1cc(Cl)c(N)cc1OC [METOCLOPRAMIDE]
IC50 (Cytochrome P450 3A4): Not Active
Ki (Cytochrome P450 3A4): Not Active
IC50 ([1]; mdck): Not Active
IC50 (Cytochrome P450 1A2): Not Active
Ki (Cytochrome P450 1A2): Not Active
IC50 (Cytochrome P450 2A6): Not Active
Ki (Cytochrome P450 2A6): Not Active
IC50 (Cytochrome P450 2C9): Not Active
Ki (Cytochrome P450 2C9): Not Active
IC50 ([2]; read-out: IC50): 2380 nM
Ki [2]: 1250 nM

CCOC(=O)C1=C(C)NC(C)=C(C(=O)OCC)C1c1ccccc1/C=C/C(=O)OC(C)(C)C [LACIDIPINE]
IC50 ([1]; read-out: IC50): 5730 nM
Ki ([1]; read-out: Ki): 5690 nM
IC50 (Cytochrome P450 1A2): Not Active
Ki (Cytochrome P450 1A2): Not Active
IC50 (Cytochrome P450 2A6): Not Active
Ki (Cytochrome P450 2A6): Not Active
IC50 (Cytochrome P450 2D6): Not Active
Ki (Cytochrome P450 2D6): Not Active
IC50 ([2]; cho-k1): Not Active

O=C(OC[C@H]1O[C@@H](OC(=O)c2cc(O)c(O)c(OC(=O)c3cc(O)c(O)c(O)c3)c2)[C@H](OC(=O)c2cc(O)c(O)c(OC(=O)c3cc(O)c(O)c(O)c3)c2)[C@@H](OC(=O)c2cc(O)c(O)c(OC(=O)c3cc(O)c(O)c(O)c3)c2)[C@@H]1OC(=O)c1cc(O)c(O)c(OC(=O)c2cc(O)c(O)c(O)c2)c1)c1cc(O)c(O)c(OC(=O)c2cc(O)c(O)c(O)c2)c1 [TANNIC ACID]
IC50 (Cytochrome P450 3A4): Not Active
Ki (Cytochrome P450 3A4): Not Active
IC50 ([1]; mdck): Not Active
IC50 (Cytochrome P450 2A6): Not Active
Ki (Cytochrome P450 2A6): Not Active
IC50 (Cytochrome P450 2D6): Not Active
Ki (Cytochrome P450 2D6): Not Active
IC50 ([2]; cho-k1): Not Active

CC#C[C@]1(O)CC[C@H]2[C@@H]3CCC4=CC(=O)CCC4=C3[C@@H](c3ccc(N(C)C)cc3)C[C@@]21C [MIFEPRISTONE]
IC50 ([1]; mdck): Not Active
IC50 (Cytochrome P450 1A2): Not Active
Ki (Cytochrome P450 1A2): Not Active
IC50 (Cytochrome P450 2A6): Not Active
Ki (Cytochrome P450 2A6): Not Active
IC50 (Cytochrome P450 2D6): Not Active
Ki (Cytochrome P450 2D6): Not Active
IC50 (Cytochrome P450 2C9): Not Active
Ki (Cytochrome P450 2C9): Not Active
IC50 ([2]; cho-k1): Not Active

CCOc1cc(N)c(Cl)cc1C(=O)NCC1CN(Cc2ccc(F)cc2)CCO1 (stereo not drawn) [MOSAPRIDE]
IC50 ([1]; mdck): Not Active
IC50 (Cytochrome P450 2A6): Not Active
Ki (Cytochrome P450 2A6): Not Active
IC50 (Cytochrome P450 2D6): Not Active
Ki (Cytochrome P450 2D6): Not Active
IC50 ([2]; read-out: IC50): 397 nM
Ki [2]: 208 nM
